# Laboratory results: ChEMBL document CHEMBL6114972, “Proteolysis targeting chimera of BI-2536 induces potent dual degradation of PLK1 and BET proteins” (Bioorg Med Chem, 2025)
# Calls of active or inactive are those of the source. No cut-off for these calls is given here.
# Legend:
# K562 = experiment: Cytotoxicity against human K562 cells assessed as reduction in cell viability measured after 3 days by CCK-8 assay; type: functional, cell-based; conditions: K562, 72 h
# HeLa [1] = experiment: Cytotoxicity against human HeLa cells assessed as reduction in cell viability measured after 3 days by CCK-8 assay; type: functional, cell-based; conditions: 72 h
# MDA-MB-231 = experiment: Cytotoxicity against human MDA-MB-231 cells assessed as reduction in cell viability measured after 3 days by CCK-8 assay; type: functional, cell-based; conditions: MDA-MB-231, 72 h
# CWR22R = experiment: Cytotoxicity against human 22Rv1 cells assessed as reduction in cell viability measured after 3 days by CCK-8 assay; type: functional, cell-based; conditions: 22Rv1, 72 h
# [2] = molecular target: von Hippel-Lindau disease tumor suppressor/Serine/threonine-protein kinase PLK1 (Homo sapiens) (UniProt P53350+P40337); experiment: Protac activity at VHL/PLK1 in human HeLa cells assessed as PLK1 degradation at 500 nM measured after 12 hrs by Western blot analysis; type: cell-based
# [3] = molecular target: von Hippel-Lindau disease tumor suppressor/Bromodomain-containing protein 4 (Homo sapiens) (UniProt O60885+P40337); experiment: Protac activity at VHL/BRD4 in human HeLa cells assessed as BRD4 degradation at 500 nM measured after 12 hrs by Western blot analysis; type: cell-based
# [4] = molecular target: T1, Protein cereblon/Serine/threonine-protein kinase PLK1 (Homo sapiens, UniProt P53350+Q96SW2); experiment: Protac activity at CRBN/PLK1 in human 22Rv1 cells assessed as PLK1 degradation at 10 nM measured after 36 hrs by Western blot analysis; type: cell-based
# [5] = molecular target: T2, Protein cereblon/Bromodomain-containing protein 4 (Homo sapiens, UniProt O60885+Q96SW2); experiment: Protac activity at CRBN/BRD4 in human HeLa cells assessed as BRD4 degradation at 500 nM measured after 12 hrs by Western blot analysis; type: cell-based
# [6] = molecular target: T1, Protein cereblon/Serine/threonine-protein kinase PLK1; experiment: Protac activity at CRBN/PLK1 in human HeLa cells assessed as PLK1 degradation at 500 nM measured after 12 hrs by Western blot analysis; type: cell-based
# [7] = molecular target: T2, Protein cereblon/Bromodomain-containing protein 4; experiment: Protac activity at CRBN/BRD4 in human HeLa cells assessed as BRD4 degradation at 20 nM measured after 24 hrs by Western blot analysis; type: cell-based
# [8] = molecular target: T1, Protein cereblon/Serine/threonine-protein kinase PLK1; experiment: Protac activity at CRBN/PLK1 in human 22Rv1 cells assessed as PLK1 degradation at 5 to 10 nM measured after 36 hrs by Western blot analysis; type: cell-based; conditions: dose 5-10 nM
# HeLa [9] = experiment: Induction of degradation of PLK1 in human HeLa cells at 500 nM measured after 12 hrs by Western blot analysis; type: cell-based
# HeLa [10] = experiment: Induction of degradation of BRD4 in human HeLa cells at 500 nM measured after 12 hrs by Western blot analysis; type: cell-based
# T1 sequence (P53350 2-603 limits assumed): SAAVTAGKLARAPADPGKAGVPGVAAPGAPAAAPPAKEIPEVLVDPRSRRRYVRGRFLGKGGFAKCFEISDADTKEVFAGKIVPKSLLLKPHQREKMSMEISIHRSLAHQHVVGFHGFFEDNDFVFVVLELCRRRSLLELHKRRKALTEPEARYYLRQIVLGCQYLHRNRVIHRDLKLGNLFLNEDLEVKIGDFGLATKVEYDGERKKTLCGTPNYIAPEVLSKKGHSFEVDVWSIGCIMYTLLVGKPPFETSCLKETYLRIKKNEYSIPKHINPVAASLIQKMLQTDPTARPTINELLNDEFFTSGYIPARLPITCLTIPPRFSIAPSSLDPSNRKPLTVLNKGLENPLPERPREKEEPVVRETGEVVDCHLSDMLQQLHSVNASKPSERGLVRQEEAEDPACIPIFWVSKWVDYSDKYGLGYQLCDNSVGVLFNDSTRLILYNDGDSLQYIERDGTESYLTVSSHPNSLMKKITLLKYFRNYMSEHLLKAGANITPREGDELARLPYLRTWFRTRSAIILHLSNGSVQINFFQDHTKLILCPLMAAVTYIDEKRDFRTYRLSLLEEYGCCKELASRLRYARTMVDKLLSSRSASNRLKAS
# T1 sequence (Q96SW2 whole entry partner): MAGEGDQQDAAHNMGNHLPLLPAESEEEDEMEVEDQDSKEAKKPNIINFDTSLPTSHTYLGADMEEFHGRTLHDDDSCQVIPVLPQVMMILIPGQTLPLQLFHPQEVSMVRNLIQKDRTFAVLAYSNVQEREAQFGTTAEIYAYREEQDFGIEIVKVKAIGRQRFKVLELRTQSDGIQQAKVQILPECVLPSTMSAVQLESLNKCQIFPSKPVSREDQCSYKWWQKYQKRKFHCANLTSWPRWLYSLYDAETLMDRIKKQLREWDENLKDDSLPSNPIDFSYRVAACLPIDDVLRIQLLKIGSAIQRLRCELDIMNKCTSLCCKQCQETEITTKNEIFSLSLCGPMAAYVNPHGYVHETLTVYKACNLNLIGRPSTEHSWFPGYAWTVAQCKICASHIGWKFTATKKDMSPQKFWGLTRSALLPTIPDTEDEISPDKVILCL
# T2 sequence (Q96SW2 whole entry, looked up, other chains not shown): as the sequence (Q96SW2 whole entry partner) above
# Sequence of von Hippel-Lindau disease tumor suppressor/Bromodomain-containing protein 4 (Homo sapiens) (P40337 whole entry, looked up, other chains not shown): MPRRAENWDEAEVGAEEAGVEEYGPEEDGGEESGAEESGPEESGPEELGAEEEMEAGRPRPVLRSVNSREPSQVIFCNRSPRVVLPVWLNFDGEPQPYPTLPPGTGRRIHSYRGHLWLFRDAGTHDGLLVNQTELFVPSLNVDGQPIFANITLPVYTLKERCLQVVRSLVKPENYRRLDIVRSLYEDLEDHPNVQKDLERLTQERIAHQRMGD
# Sequence of von Hippel-Lindau disease tumor suppressor/Serine/threonine-protein kinase PLK1 (Homo sapiens) (P40337 whole entry, looked up): as the sequence (P40337 whole entry, looked up, other chains not shown) above
# Sequence of von Hippel-Lindau disease tumor suppressor/Serine/threonine-protein kinase PLK1 (Homo sapiens) (P53350 whole entry, looked up): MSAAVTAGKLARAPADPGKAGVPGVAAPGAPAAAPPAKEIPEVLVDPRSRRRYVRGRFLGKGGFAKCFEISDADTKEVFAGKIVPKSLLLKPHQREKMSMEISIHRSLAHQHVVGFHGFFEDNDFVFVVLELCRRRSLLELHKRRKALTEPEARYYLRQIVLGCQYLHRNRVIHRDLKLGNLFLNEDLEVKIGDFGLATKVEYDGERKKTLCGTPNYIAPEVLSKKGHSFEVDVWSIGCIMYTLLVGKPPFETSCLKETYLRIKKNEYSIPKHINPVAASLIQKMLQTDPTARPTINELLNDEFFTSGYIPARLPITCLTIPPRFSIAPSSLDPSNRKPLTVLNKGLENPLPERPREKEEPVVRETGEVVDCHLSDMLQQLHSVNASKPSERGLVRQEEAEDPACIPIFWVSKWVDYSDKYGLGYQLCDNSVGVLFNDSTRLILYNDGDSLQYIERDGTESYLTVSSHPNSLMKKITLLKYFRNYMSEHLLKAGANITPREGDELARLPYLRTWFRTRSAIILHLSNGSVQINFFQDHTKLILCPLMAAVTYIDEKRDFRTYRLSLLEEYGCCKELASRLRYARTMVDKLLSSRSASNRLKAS
Structure (SMILES),Activity [2],Activity [3],Activity [4],Activity [5],Activity [6],Activity [7],Activity [8],IC50 (K562),IC50 (HeLa [1]),IC50 (MDA-MB-231),IC50 (CWR22R),Activity (HeLa [9]),Activity (HeLa [10])
Cc1ncsc1-c1ccc(CNC(=O)[C@@H]2C[C@@H](O)CN2C(=O)[C@@H](NC(=O)CCCCCCCCCCNC(=O)c2cc3c(cc2CS(C)(=O)=O)-c2cn(C)c(=O)c4[nH]cc(c24)CN3c2ncc(F)cc2F)C(C)(C)C)cc1,,,inactive,,,,,,,,,,
Cc1ncsc1-c1ccc([C@H](C)NC(=O)[C@@H]2C[C@@H](O)CN2C(=O)[C@@H](NC(=O)COCCCOCCNC(=O)C[C@@H]2N=C(c3ccc(Cl)cc3)c3c(sc(C)c3C)-n3c(C)nnc32)C(C)(C)C)cc1,,,,,,,inactive,,,,,,
CC[C@@H]1C(=O)N(C)c2cnc(Nc3ccc(C(=O)NC4CCN(CCCCCCC(=O)N[C@H](C(=O)N5C[C@H](O)C[C@H]5C(=O)NCc5ccc(-c6scnc6C)cc5)C(C)(C)C)CC4)cc3OC)nc2N1C1CCCC1,0%,10%,,,,,,> 1000 nM,193 nM,> 1000 nM,> 1000 nM,,
CC[C@@H]1C(=O)N(C)c2cnc(Nc3ccc(C(=O)NC4CCN(C)CC4)cc3OC)nc2N1C1CCCC1,,,,,,,,,,,,0%,0%
CC[C@@H]1C(=O)N(C)c2cnc(Nc3ccc(C(=O)NC4CCN(CCCCCC(=O)N[C@H](C(=O)N5C[C@H](O)C[C@H]5C(=O)NCc5ccc(-c6scnc6C)cc5)C(C)(C)C)CC4)cc3OC)nc2N1C1CCCC1,0.3%,7%,,,,,,> 1000 nM,398 nM,> 1000 nM,> 1000 nM,,

# Second part, led by results:
Activity [2],Activity [3],Activity [4],Activity [5],Activity [6],Activity [7],Activity [8],Structure (SMILES),IC50 (K562),IC50 (HeLa [1]),IC50 (MDA-MB-231),IC50 (CWR22R),Activity (HeLa [9]),Activity (HeLa [10])
6%,22%,,,,,,CC[C@@H]1C(=O)N(C)c2cnc(Nc3ccc(C(=O)NC4CCN(CCCCCCCC(=O)N[C@H](C(=O)N5C[C@H](O)C[C@H]5C(=O)NCc5ccc(-c6scnc6C)cc5)C(C)(C)C)CC4)cc3OC)nc2N1C1CCCC1,527 nM,158 nM,> 1000 nM,> 1000 nM,,
8%,50%,,,,,,CC[C@@H]1C(=O)N(C)c2cnc(Nc3ccc(C(=O)NC4CCN(CCCCCCCCCC(=O)N[C@H](C(=O)N5C[C@H](O)C[C@H]5C(=O)NCc5ccc(-c6scnc6C)cc5)C(C)(C)C)CC4)cc3OC)nc2N1C1CCCC1,66 nM,52 nM,928 nM,225 nM,,
,,,93%,7%,Active,,CC[C@@H]1C(=O)N(C)c2cnc(Nc3ccc(C(=O)NC4CCN(CCCCCCCCCC(=O)Nc5cccc6c5C(=O)N(C5CCC(=O)NC5=O)C6=O)CC4)cc3OC)nc2N1C1CCCC1 (some centres not stated),133 nM,125 nM,527 nM,63 nM,,
,,,94%,18%,Active,,CC[C@@H]1C(=O)N(C)c2cnc(Nc3ccc(C(=O)NC4CCN(CCCCCCC(=O)Nc5cccc6c5C(=O)N(C5CCC(=O)NC5=O)C6=O)CC4)cc3OC)nc2N1C1CCCC1 (some centres not stated),89 nM,54 nM,489 nM,48 nM,,
